Columns and labels:
[1] = system: PC-3 PIP/flu tumor-bearing mice; assay: Biodistribution study in PC-3 PIP/flu tumor-bearing mice; assay type: in vivo, athymic nude Balb/c mice; conditions: for Blood / Bone / Heart / Intestines / Kidneys / Liver / Lung / Muscle / Salivary glands / Spleen / Stomach / Tumor-to-blood / Tumor-to-kidney / Tumor-to-liver: PC-3 PIP/flu tumor-bearing mice; for PC-3 flu Tumor: PSMA-negative tumor xenograft; for PC-3 flu Tumor / PC-3 PIP Tumor: mice; for PC-3 PIP Tumor: PSMA-positive tumor xenograft
Experimental: In vivo experiments were approved by the local veterinarian department and conducted in accordance with the Swiss law of animal protection. Mice were obtained from Charles River Laboratories, Sulzfeld, Germany, at the age of 5-6 weeks. Female, athymic nude Balb/c mice were subcutaneously inoculated with PSMA-positive PC-3 PIP cells (6×10^6 cells in 100 μL Hank's balanced salt solution (HBSS) with Ca^2+/Mg^2+) on the right shoulder and with PSMA-negative PC-3 flu cells (5×10^6 cells in 100 μL HBSS Ca^2+/Mg^2+) on the left shoulder. Two weeks later, the tumors reached a size of about 80-300 mm^3 suitable for the performance of the biodistribution studies.
Biodistribution studies were performed 12-15 days after PC-3 PIP/flu tumor cell inoculation. […] The radioligands were injected in a lateral tail vein in a volume of 100-200 μL. Mice were euthanized at different time points after injection (p.i.) of the radioligands. Selected tissues and organs were collected, weighed and measured using a γ-counter. The results were decay-corrected and listed as a percentage of the injected activity per gram of tissue mass (% IA/g) (Table 3 and 4).
Mice were obtained from Charles River Laboratories, Sulzfeld, Germany, at the age of 5-6 weeks. Female, athymic nude BALB/c mice were subcutaneously inoculated with PSMA-positive PC-3 PIP cells (6×10^6 cells in 100 μL Hank's balanced salt solution (HBSS)) on the right shoulder and with PSMA-negative PC-3 flu cells (5×10^6 cells in 100 μL HBSS) on the left shoulder. Two weeks later, the tumors reached a size of about 80-300 mm^3 suitable for the performance of the biodistribution and imaging studies.
Biodistribution studies were performed 12-15 days after PC-3 PIP/flu tumor cell inoculation. ^177Lu-Ibu-sPSMA was diluted in 0.9% NaCl containing 0.05% bovine serum albumin (BSA) to prevent adhesion to the vial and syringe material. The radioligand was injected in a lateral tail vein in a volume of 100 μL. Mice were euthanized at different time points after injection (p.i.) of the radioligand. Selected tissues and organs were collected, weighed and measured using a γ-counter. The results were decay-corrected and listed as a percentage of the injected activity per gram of tissue mass (% IA/g) (Table 6, FIG. 18).

[2] = system: PSMA-positive PC-3 PIP tumor cells; assay: Cell uptake and internalization, PSMA-positive cells; assay type: cell-based
Description: Cell uptake and internalization of ^177Lu-Ibu-PSMA, ^177Lu-Ibu-Dα-PSMA, ^177Lu-Ibu-Dβ-PSMA, ^177Lu-Ibu-N-PSMA and ^177Lu-Ibu-DAB-PSMA were investigated using PSMA-positive PC-3 PIP and PSMA-negative PC-3 flu tumor cells kindly provided by Prof. Dr. Martin Pomper (John Hopkins Institutions, Baltimore, U.S.; Eiber, M.; Fendler, W. P.; Rowe, S. P.; Calais, J.; Hofman, M. S.; Maurer, T.; Schwarzenboeck, S. M.; Kratowchil, C.; Herrmann, K.; Giesel, F. L. Prostate-specific membrane antigen ligands for imaging and therapy. J Nucl Med 2017, 58, (Suppl 2), 67S-76S). Each radioligand was investigated by the performance of experiments performed 3 times in triplicate with PC-3 PIP tumor cell and once in triplicate with PC-3 flu tumor cells.
Cell uptake and internalization of ^177Lu-Ibu-sPSMA were investigated using PSMA-positive PC-3 PIP and PSMA-negative PC-3 flu tumor cells kindly provided by Prof. Dr. Martin Pomper (Johns Hopkins University School of Medicine, Baltimore, Md., U.S.A.) (Eiber, et al.; J Nucl Med 2017, 58, (Suppl 2), 67S-76S). ^177Lu-Ibu-sPSMA was investigated by performing experiments 3 times in 6 replicates with PC-3 PIP tumor cells and 3 times in 6 replicates with PC-3 flu tumor cells.

[3] = n-Octanol/PBS distribution coefficient (log D); assay type: physicochemical
Experimental: The n-octanol/PBS distribution coefficient of the five exemplified PSMA-binding agents ^177Lu-Ibu-PSMA, ^177Lu-Ibu-Dα-PSMA, ^177Lu-Ibu-Dβ-PSMA, ^177Lu-Ibu-N-PSMA and ^177Lu-Ibu-DAB-PSMA in a n-octanol/PBS system was performed in a similar manner as previously reported (Benesova, M.; Umbricht, C. A.; Schibli, R.; Müller, C. Albumin-binding PSMA ligands: optimization of the tissue distribution profile. Mol Pharm 2018, 15, (3), 934-946).

Question: For `CC(C)Cc1ccc(C(C)C(=O)NCC[C@H](NC(=O)CN2CCN(CC(=O)O)CCN(CC(=O)O)CCN(CC(=O)O)CC2)C(=O)NCC2CCC(C(=O)N[C@@H](Cc3ccc4ccccc4c3)C(=O)NCCCC[C@H](NC(=O)N[C@@H](CCC(=O)O)C(=O)O)C(=O)O)CC2)cc1` (stereo partly shown) [^177Lu-Ibu-sPSMA, metal not drawn], which Blood ([1]; 1 h p.i.) is on record?
Answer: The Blood was 29±4 % IA/g.

Question: What about the Bone ([1]; 1 h p.i.) of the same compound?
Answer: The Bone was 3.3 ± 0.4 % IA/g.

Question: What about the Heart ([1]; 1 h p.i.) of the same compound?
Answer: The Heart was 9.3 ± 1.5 % IA/g.

Question: And the Intestines ([1]; 1 h p.i.)?
Answer: The Intestines was 2.9 ± 0.3 % IA/g.

Question: What about the Kidneys ([1]; 1 h p.i.) of the same compound?
Answer: The Kidneys was 114±15 % IA/g.

Question: And the Liver ([1]; 1 h p.i.)?
Answer: The Liver was 17±4 % IA/g.

Question: What about the Lung ([1]; 1 h p.i.) of the same compound?
Answer: Its Lung is 17 ± 3 % IA/g.

Question: And the Muscle ([1]; 1 h p.i.)?
Answer: Its Muscle is 3.1 ± 0.7 % IA/g.

Question: What about the Salivary glands ([1]; 1 h p.i.) of the same compound?
Answer: Its Salivary glands is 6.6 ± 0.5 % IA/g.

Question: And the Spleen ([1]; 1 h p.i.)?
Answer: The Spleen was 5.8 ± 1.2 % IA/g.

Question: And the Stomach ([1]; 1 h p.i.)?
Answer: The Stomach was 2.6 ± 0.5 % IA/g.

Question: What about the Tumor-to-blood ([1]; 1 h p.i.) of the same compound?
Answer: The Tumor-to-blood was 2.2 ± 0.1.

Question: What about the Tumor-to-kidney ([1]; 1 h p.i.) of the same compound?
Answer: Its Tumor-to-kidney is 0.56±0.09.

Question: And the Tumor-to-liver ([1]; 1 h p.i.)?
Answer: Its Tumor-to-liver is 3.7 ± 0.5.

Question: What about the “PC-3 flu Tumor” value ([1]; 1 h p.i.) of the same compound?
Answer: The value was 5.1 ± 0.7 % IA/g.

Question: What about the “PC-3 PIP Tumor” value ([1]; 1 h p.i.) of the same compound?
Answer: Its value is 63±8 % IA/g.

Question: What about the Blood ([1]; 4 h p.i.) of the same compound?
Answer: The Blood was 7.2 ± 0.7 % IA/g.

Question: What about the Bone ([1]; 4 h p.i.) of the same compound?
Answer: Its Bone is 1.1 ± 0.2 % IA/g.

Question: What about the Heart ([1]; 4 h p.i.) of the same compound?
Answer: Its Heart is 2.4 ± 0.2 % IA/g.

Question: What about the Intestines ([1]; 4 h p.i.) of the same compound?
Answer: Its Intestines is 1.1 ± 0.2 % IA/g.

Question: What about the Kidneys ([1]; 4 h p.i.) of the same compound?
Answer: The Kidneys was 28 ± 2 % IA/g.

Question: What about the Liver ([1]; 4 h p.i.) of the same compound?
Answer: Its Liver is 7.2±0.5 % IA/g.

Question: And the Lung ([1]; 4 h p.i.)?
Answer: Its Lung is 4.9 ± 0.7 % IA/g.

Question: What about the Muscle ([1]; 4 h p.i.) of the same compound?
Answer: Its Muscle is 0.84 ± 0.14 % IA/g.

Question: And the Salivary glands ([1]; 4 h p.i.)?
Answer: Its Salivary glands is 1.9 ± 0.2 % IA/g.

Question: And the Spleen ([1]; 4 h p.i.)?
Answer: Its Spleen is 2.1 ± 0.3 % IA/g.

Question: And the Stomach ([1]; 4 h p.i.)?
Answer: Its Stomach is 1.3 ± 0.9 % IA/g.

Question: And the Tumor-to-blood ([1]; 4 h p.i.)?
Answer: The Tumor-to-blood was 14 ± 3.

Question: And the Tumor-to-kidney ([1]; 4 h p.i.)?
Answer: Its Tumor-to-kidney is 3.6 ± 0.2.

Question: What about the Tumor-to-liver ([1]; 4 h p.i.) of the same compound?
Answer: Its Tumor-to-liver is 14 ± 2.

Question: And the “PC-3 flu Tumor” value ([1]; 4 h p.i.)?
Answer: Its value is 2.0 ± 0.3 % IA/g.

Question: And the “PC-3 PIP Tumor” value ([1]; 4 h p.i.)?
Answer: The value was 99 ± 7 % IA/g.

Question: And the Blood ([1]; 24 h p.i.)?
Answer: The Blood was 0.76 ± 0.07 % IA/g.

Question: And the Bone ([1]; 24 h p.i.)?
Answer: The Bone was 0.27 ± 0.04 % IA/g.

Question: What about the Heart ([1]; 24 h p.i.) of the same compound?
Answer: Its Heart is 0.39 ± 0.04 % IA/g.

Question: What about the Intestines ([1]; 24 h p.i.) of the same compound?
Answer: The Intestines was 0.31 ± 0.07 % IA/g.

Question: What about the Kidneys ([1]; 24 h p.i.) of the same compound?
Answer: Its Kidneys is 10 ± 2 % IA/g.

Question: And the Liver ([1]; 24 h p.i.)?
Answer: The Liver was 0.81 ± 0.09 % IA/g.

Question: What about the Lung ([1]; 24 h p.i.) of the same compound?
Answer: Its Lung is 0.79 ± 0.07 % IA/g.

Question: And the Muscle ([1]; 24 h p.i.)?
Answer: Its Muscle is 0.14 ± 0.02 % IA/g.

Question: What about the Salivary glands ([1]; 24 h p.i.) of the same compound?
Answer: The Salivary glands was 0.37 ± 0.05 % IA/g.

Question: And the Spleen ([1]; 24 h p.i.)?
Answer: The Spleen was 0.72 ± 0.15 % IA/g.

Question: What about the Stomach ([1]; 24 h p.i.) of the same compound?
Answer: Its Stomach is 0.50 ± 0.19 % IA/g.

Question: And the Tumor-to-blood ([1]; 24 h p.i.)?
Answer: Its Tumor-to-blood is 173 ± 18.

Question: What about the Tumor-to-kidney ([1]; 24 h p.i.) of the same compound?
Answer: Its Tumor-to-kidney is 13 ± 2.

Question: What about the Tumor-to-liver ([1]; 24 h p.i.) of the same compound?
Answer: The Tumor-to-liver was 163 ± 16.

Question: What about the “PC-3 flu Tumor” value ([1]; 24 h p.i.) of the same compound?
Answer: Its value is 0.66 ± 0.07 % IA/g.

Question: And the “PC-3 PIP Tumor” value ([1]; 24 h p.i.)?
Answer: The value was 132±15 % IA/g.

Question: And the Blood ([1]; 96 h p.i.)?
Answer: Its Blood is 0.27 ± 0.02 % IA/g.

Question: And the Bone ([1]; 96 h p.i.)?
Answer: Its Bone is 0.08 ± 0.01 % IA/g.

Question: What about the Heart ([1]; 96 h p.i.) of the same compound?
Answer: Its Heart is 0.12 ± 0.01 % IA/g.

Question: And the Intestines ([1]; 96 h p.i.)?
Answer: Its Intestines is 0.13 ± 0.03 % IA/g.

Question: And the Kidneys ([1]; 96 h p.i.)?
Answer: The Kidneys was 2.3 ± 0.3 % IA/g.

Question: What about the Liver ([1]; 96 h p.i.) of the same compound?
Answer: The Liver was 0.22 ± 0.02 % IA/g.

Question: What about the Lung ([1]; 96 h p.i.) of the same compound?
Answer: The Lung was 0.25 ± 0.03 % IA/g.

Question: And the Muscle ([1]; 96 h p.i.)?
Answer: Its Muscle is 0.04 ± 0.02 % IA/g.

Question: And the Salivary glands ([1]; 96 h p.i.)?
Answer: The Salivary glands was 0.11 ± 0.02 % IA/g.

Question: And the Spleen ([1]; 96 h p.i.)?
Answer: Its Spleen is 0.22 ± 0.03 % IA/g.

Question: And the Stomach ([1]; 96 h p.i.)?
Answer: The Stomach was 0.73 ± 0.82 % IA/g.

Question: And the Tumor-to-blood ([1]; 96 h p.i.)?
Answer: The Tumor-to-blood was 210 ± 35.

Question: What about the Tumor-to-kidney ([1]; 96 h p.i.) of the same compound?
Answer: The Tumor-to-kidney was 25 ± 2.

Question: What about the Tumor-to-liver ([1]; 96 h p.i.) of the same compound?
Answer: Its Tumor-to-liver is 263 ± 42.

Question: And the “PC-3 flu Tumor” value ([1]; 96 h p.i.)?
Answer: Its value is 0.15 ± 0.02 % IA/g.

Question: And the “PC-3 PIP Tumor” value ([1]; 96 h p.i.)?
Answer: The value was 57±9 % IA/g.

Question: What about the internalized fraction ([2]; 2 h incubation) of the same compound?
Answer: Its internalized fraction is 18%.

Question: What about the internalized fraction ([2]; 4 h incubation) of the same compound?
Answer: The internalized fraction was 22%.

Question: What about the logD [3] of the same compound?
Answer: The logD was -2.43 ± 0.01.

— US20220024882A1, “NOVEL TUMOR ANTIGEN BINDING AGENTS AND USES THEREOF” (ITM Isotopen Technologien München AG, priority 2018, published 2022)
